Measurements reported in the supplement of paper PMC7017272.
± gives the standard deviation of the averaged measurements.

Experiments:
Conditions in all cases: treatment time: 3 days
UT-SCC-40 = experiment: maximal % inhibition of viability relative to DMSO; higher = stronger effect
Method: (§1)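 HNSCC cell lines (500 cells/well, 384-well) were cultured on plastic, on top of (2D) or embedded (3D) in Matrigel or human leiomyoma matrix Myogel (500 ug/mL; Myogel 3D mixed with rat collagen I). Cells were treated for 3 days with 5 ten-fold concentrations of each drug, and viability was read by CellTiter-Glo. Viability was normalised to DMSO and benzethonium chloride controls and fitted with the FIMM DSRT pipeline to give IC50 (nM), maximal % inhibition and DSS. Suffixes _1/_2/_3 are replicates. Only inhibition-mode (IC50) fits are kept.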

UT-SCC-42B = experiment: as above
Method: as §1

UT-SCC-24B [1] = experiment: as above
Method: as §1

UT-SCC-14 [2] = experiment: as above
Method: as §1

UT-SCC-8 [3] = experiment: as above
Method: as §1

UT-SCC-73 = experiment: as above
Method: as §1

UT-SCC-42A [4] = experiment: as above
Method: as §1

UT-SCC-44 = experiment: as above
Method: as §1

UT-SCC-81 [5] = experiment: as above
Method: as §1

UT-SCC-106A = experiment: as above
Method: as §1

UT-SCC-28 [6] = experiment: as above
Method: as §1

UT-SCC-24B [7] = experiment: relative IC50 (midpoint of the fitted curve; maximal inhibition may be below 50%); higher = less potent
In short: (§2)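 Viability was read with CellTiter-Glo 2.0 luminescence and scaled against vehicle (0.1% DMSO) and cell-killing control wells. The assay used HPV-negative HNSCC cell lines at 500 cells/well in 384-well plates, grown on plastic, on Matrigel or Myogel coatings (500 µg/mL), or embedded in Matrigel or Myogel plus rat collagen I, and treated for 3 days at five 10-fold concentrations. IC50, maximal inhibition and drug sensitivity score were derived from percent-inhibition dose–response curves fitted in the FIMM pipeline.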

UT-SCC-14 [8] = experiment: as above
In short: as §2

UT-SCC-8 [9] = experiment: as above
In short: as §2

UT-SCC-42A [10] = experiment: as above
In short: as §2

UT-SCC-81 [11] = experiment: as above
In short: as §2

UT-SCC-28 [12] = experiment: as above
In short: as §2

[13] = culture condition: embedded in Matrigel
[14] = culture condition: embedded in Myogel + collagen I
[15] = culture condition: on top of Matrigel
[16] = culture condition: on top of Myogel
[17] = culture condition: plastic 2D (no matrix)

**Q.** What does the source list for `C=CC(=O)Nc1cc2c(Nc3ccc(F)c(Cl)c3)ncnc2cc1OCCCN1CCOCC1` [Canertinib]?
**A.** maximal % inhibition of viability (UT-SCC-40; [13]): 99.5 ± 0.46%; maximal % inhibition of viability (UT-SCC-40; [14]): 99.37 ± 0.55%; maximal % inhibition of viability (UT-SCC-40; [15]): 99.73 ± 0.38%; maximal % inhibition of viability (UT-SCC-40; [16]): 99.63 ± 0.55%; maximal % inhibition of viability (UT-SCC-40; [17]): 99.67 ± 0.58%; maximal % inhibition of viability (UT-SCC-42B; [13]): 99.5 ± 0.36%; maximal % inhibition of viability (UT-SCC-42B; [15]): 99.87 ± 0.23%; maximal % inhibition of viability (UT-SCC-42B; [16]): 99.77 ± 0.4%; maximal % inhibition of viability (UT-SCC-42B; [17]): 99.17 ± 0.74%; maximal % inhibition of viability (UT-SCC-24B [1]; [13]): 99.67 ± 0.31%; maximal % inhibition of viability (UT-SCC-24B [1]; [14]): 99.33 ± 0.61%; maximal % inhibition of viability (UT-SCC-24B [1]; [15]): 99.83 ± 0.29%; maximal % inhibition of viability (UT-SCC-24B [1]; [16]): 99.7 ± 0.52%; maximal % inhibition of viability (UT-SCC-24B [1]; [17]): 99.47 ± 0.46%; maximal % inhibition of viability (UT-SCC-14 [2]; [13]): 99.23 ± 0.75%; maximal % inhibition of viability (UT-SCC-14 [2]; [14]): 98.8 ± 1.1%; maximal % inhibition of viability (UT-SCC-14 [2]; [15]): 99.7 ± 0.27%; maximal % inhibition of viability (UT-SCC-14 [2]; [16]): 98.7 ± 1.7%; maximal % inhibition of viability (UT-SCC-14 [2]; [17]): 98.5 ± 1.4%; maximal % inhibition of viability (UT-SCC-8 [3]; [13]): 99.83 ± 0.29%; maximal % inhibition of viability (UT-SCC-8 [3]; [14]): 99 ± 1%; maximal % inhibition of viability (UT-SCC-8 [3]; [15]): 99.967 ± 0.058%; maximal % inhibition of viability (UT-SCC-8 [3]; [16]): 99.967 ± 0.058%; maximal % inhibition of viability (UT-SCC-8 [3]; [17]): 99.37 ± 0.85%; maximal % inhibition of viability (UT-SCC-73; [13]): 99.5 ± 0.46%; maximal % inhibition of viability (UT-SCC-73; [14]): 99.57 ± 0.59%; maximal % inhibition of viability (UT-SCC-73; [15]): 99.13 ± 0.78%; maximal % inhibition of viability (UT-SCC-73; [16]): 98.9 ± 0.98%; maximal % inhibition of viability (UT-SCC-73; [17]): 99.5 ± 0.7%; maximal % inhibition of viability (UT-SCC-42A [4]; [13]): 96.9 ± 4.2%; maximal % inhibition of viability (UT-SCC-42A [4]; [14]): 97.4 ± 3.2%; maximal % inhibition of viability (UT-SCC-42A [4]; [15]): 98.3 ± 1.7%; maximal % inhibition of viability (UT-SCC-42A [4]; [16]): 98 ± 1.9%; maximal % inhibition of viability (UT-SCC-42A [4]; [17]): 99.23 ± 0.8%; maximal % inhibition of viability (UT-SCC-44; [13]): 77.5 ± 7%; maximal % inhibition of viability (UT-SCC-44; [14]): 92.5 ± 2.4%; maximal % inhibition of viability (UT-SCC-44; [15]): 92 ± 3.6%; maximal % inhibition of viability (UT-SCC-44; [16]): 95 ± 3.5%; maximal % inhibition of viability (UT-SCC-44; [17]): 94.1 ± 3.5%; maximal % inhibition of viability (UT-SCC-81 [5]; [13]): 99.63 ± 0.4%; maximal % inhibition of viability (UT-SCC-81 [5]; [14]): 99.77 ± 0.32%; maximal % inhibition of viability (UT-SCC-81 [5]; [15]): 99.27 ± 0.64%; maximal % inhibition of viability (UT-SCC-81 [5]; [16]): 99.13 ± 0.75%; maximal % inhibition of viability (UT-SCC-81 [5]; [17]): 99.77 ± 0.4%; maximal % inhibition of viability (UT-SCC-106A; [13]): 95.6 ± 2%; maximal % inhibition of viability (UT-SCC-106A; [14]): 95.1 ± 1.2%; maximal % inhibition of viability (UT-SCC-106A; [15]): 97.3 ± 2.1%; maximal % inhibition of viability (UT-SCC-106A; [16]): 97.6 ± 1%; maximal % inhibition of viability (UT-SCC-106A; [17]): 98.83 ± 0.94%; maximal % inhibition of viability (UT-SCC-28 [6]; [13]): 82.3 ± 4.4%; maximal % inhibition of viability (UT-SCC-28 [6]; [14]): 90.8 ± 3.4%; maximal % inhibition of viability (UT-SCC-28 [6]; [15]): 86.1 ± 2.4%; maximal % inhibition of viability (UT-SCC-28 [6]; [17]): 80.9 ± 5.2%; relative IC50 (UT-SCC-24B [7]; [13]): 253 nM; relative IC50 (UT-SCC-24B [7]; [14]): 1530 nM; relative IC50 (UT-SCC-24B [7]; [15]): 234 nM; relative IC50 (UT-SCC-24B [7]; [16]): 1580 nM; relative IC50 (UT-SCC-24B [7]; [17]): 63.1 nM; relative IC50 (UT-SCC-14 [8]; [13]): 49 nM; relative IC50 (UT-SCC-14 [8]; [14]): 970 nM; relative IC50 (UT-SCC-14 [8]; [15]): 59.1 nM; relative IC50 (UT-SCC-14 [8]; [16]): 310 nM; relative IC50 (UT-SCC-14 [8]; [17]): 61.2 nM; relative IC50 (UT-SCC-8 [9]; [13]): 34.9 nM; relative IC50 (UT-SCC-8 [9]; [14]): 3640 nM; relative IC50 (UT-SCC-8 [9]; [15]): 35.7 nM; relative IC50 (UT-SCC-8 [9]; [16]): 912 nM; relative IC50 (UT-SCC-8 [9]; [17]): 39.3 nM; relative IC50 (UT-SCC-42A [10]; [13]): 253 nM; relative IC50 (UT-SCC-42A [10]; [14]): 2020 nM; relative IC50 (UT-SCC-42A [10]; [15]): 205 nM; relative IC50 (UT-SCC-42A [10]; [16]): 1270 nM; relative IC50 (UT-SCC-42A [10]; [17]): 238 nM; relative IC50 (UT-SCC-81 [11]; [13]): 36.5 nM; relative IC50 (UT-SCC-81 [11]; [14]): 1510 nM; relative IC50 (UT-SCC-81 [11]; [15]): 52 nM; relative IC50 (UT-SCC-81 [11]; [16]): 1590 nM; relative IC50 (UT-SCC-81 [11]; [17]): 69.6 nM; relative IC50 (UT-SCC-28 [12]; [13]): 3420 nM; relative IC50 (UT-SCC-28 [12]; [14]): 1510 nM; relative IC50 (UT-SCC-28 [12]; [15]): 1630 nM; relative IC50 (UT-SCC-28 [12]; [17]): 1760 nM
